The test system of experiment [1] is Staphylococcus aureus. The experiment in a line: microbe, parasite or virus in culture. Conditions: ATCC 29213.
Description: Antibacterial activity against Staphylococcus aureus ATCC 29213 assessed as reduction in bacterial growth incubated for 16 to 18 hrs by broth microdilution method
Experiment [2] relates to Staphylococcus aureus. As to the kind of experiment: Synergistic antibacterial activity against Staphylococcus aureus ATCC 29213 assessed as reduction in bacterial growth incubated for 24 hrs in presence of artocarpin by checkerboard method. In kind it is functional.
Experiment [3] deals with Staphylococcus aureus. The experiment in a line: Bactericidal activity against Staphylococcus aureus ATCC 29213 assessed as increase in extracellular ATP level at 2.5 times MIC after 1 hr by ATP bioluminescence assay. It counts as functional, organism-based.
Experiment [4] deals with Staphylococcus aureus. The experiment in a line: Bactericidal activity against Staphylococcus aureus ATCC 29213 assessed as decrease in intracellular ATP level at 2.5 times MIC after 1 hr by ATP bioluminescence assay. In kind it is functional, organism-based.
Experiment [5] concerns Escherichia coli. The experiment in a line: Antibacterial activity against Escherichia coli ATCC 25922 assessed as reduction in bacterial growth incubated for 16 to 18 hrs by broth microdilution method. It counts as functional. Conditions: time 16-18 hrs.
Experiment [6] deals with Acinetobacter baumannii. The experiment in a line: Antibacterial activity against Acinetobacter baumannii BAA 1605 assessed as reduction in bacterial growth incubated for 16 to 18 hrs by broth microdilution method. Conditions: time 16-18 hrs. It counts as functional.
The subject of experiment [7] is Staphylococcus aureus. The experiment in a line: Antibacterial activity against Staphylococcus aureus ATCC 29213 infected in Swiss mouse skin infection model assessed as reduction in skin bacterial load at 2 % dose administered twice daily for 4 days. Conditions: time 4 day. In kind it is functional.
For a further experiment, the system named is Klebsiella pneumoniae. The experiment in a line: Antibacterial activity against Klebsiella pneumoniae BAA 1705 assessed as reduction in bacterial growth incubated for 16 to 18 hrs by broth microdilution method. It counts as functional. Conditions: time 16-18 hrs. A general note: Dilution methods test growth across graded concentrations, often in twofold steps.

The test system of experiment [8] is Staphylococcus aureus. As to the kind of experiment: Antibiofilm activity against Staphylococcus aureus ATCC 29213 assessed as reduction in preformed bacterial biofilm mass at 1 time MIC incubated for 24 hrs by crystal violet staining based microtiter plate reader assay. It counts as functional. The arrangement: scale not given: the % may be the effect or the level left.

Experiment [9] concerns Staphylococcus aureus. The experiment in a line: Antibacterial activity against Staphylococcus aureus ATCC 29213 infected in mouse J774A.1 cells assessed as reduction in intracellular bacterial cells at 5 times MIC incubated for 24 hrs followed by re-plating on TSA plate and measured after 18 to 24 hrs. In kind it is functional.
The next experiment has as its system Enterococcus. The experiment in a line: Antibacterial activity against Enterococcus NR 31903 assessed as reduction in bacterial growth incubated for 16 to 18 hrs by broth microdilution method. It counts as functional. The note with it: time 16-18 hrs.
The test system of experiment [10] is Staphylococcus aureus. As to the kind of experiment: Post antibiotic effect against Staphylococcus aureus ATCC 29213 at 1 time MIC incubated for 1 hr followed by replacement with drug free medium and measured every 1 hr (reference value: 0 hr). It counts as functional.
For another experiment, the system named is Pseudomonas aeruginosa. As to the kind of experiment: Antibacterial activity against Pseudomonas aeruginosa ATCC 27853 assessed as reduction in bacterial growth incubated for 16 to 18 hrs by broth microdilution method. In kind it is functional. The note with it: time 16-18 hrs.
In experiment [11] the test system is Staphylococcus aureus. As to the kind of experiment: Post antibiotic effect against Staphylococcus aureus ATCC 29213 assessed as time required for 1 log10 increase in CFU at 1 time MIC incubated for 1 hr followed by replacement with drug free medium and measured every 1 hr (reference value: 2 hrs). It counts as functional.
The test system of experiment [12] is Staphylococcus aureus. As to the kind of experiment: Post antibiotic effect against Staphylococcus aureus ATCC 29213 at 10 times MIC incubated for 1 hr followed by replacement with drug free medium and measured every 1 hr (reference value: 0 hr). It counts as functional.
Experiment [13] can be described thus: Induction of resistance in Staphylococcus aureus ATCC 29213 assessed as increase in MIC treated over 35 serial passages by resistant development assay. In kind it is functional.
Experiment [14] deals with Staphylococcus aureus. As to the kind of experiment: Post antibiotic effect against Staphylococcus aureus ATCC 29213 assessed as time required for 1 log10 increase in CFU at 10 times MIC incubated for 1 hr followed by replacement with drug free medium and measured every 1 hr (reference value: 2 hrs). In kind it is functional.
In experiment [15] the test system is Staphylococcus aureus. As to the kind of experiment: Antibacterial activity against Staphylococcus aureus ATCC 29213 at 1 time MIC after 24 hrs by time kill assay. In kind it is functional.
The subject of experiment [16] is Acinetobacter baumannii. The experiment in a line: Antibacterial activity against Acinetobacter baumannii BAA 1605 assessed as reduction in bacterial growth incubated for 16 to 18 hrs in presence of PMBN by broth microdilution method. It counts as functional. The note with it: time 16-18 hrs.
For experiment [17], the system named is Escherichia coli. As to the kind of experiment: Antibacterial activity against Escherichia coli ATCC 25922 assessed as reduction in bacterial growth incubated for 16 to 18 hrs in presence of PMBN by broth microdilution method. It counts as functional. Conditions: time 16-18 hrs.

Values after ≈ are worked out from the molar mass of the structure shown. Active and inactive are the calls of the source. No cut-off for these calls is given here. Peptide text beside a SMILES is read from it.

Regarding `CCCCCCCCCC(=O)N[C@@H](Cc1c[nH]c2ccccc12)C(=O)N[C@H](CC(N)=O)C(=O)N[C@@H](CC(=O)O)C(=O)N[C@@H]1C(=O)NCC(=O)N[C@@H](CCCN)C(=O)N[C@@H](CC(=O)O)C(=O)N[C@H](C)C(=O)N[C@@H](CC(=O)O)C(=O)NCC(=O)N[C@H](CO)C(=O)N[C@@H]([C@H](C)CC(=O)O)C(=O)N[C@@H](CC(=O)c2ccccc2N)C(=O)O[C@@H]1C`, the MIC in the experiment with Staphylococcus aureus [1] was determined as 1 µg/mL (≈ 0.617 µM); in the experiment with Staphylococcus aureus [2] it was 0.5 µg/mL.
As to `CC[C@H](C)[C@H](NC(=O)CN)C(=O)NCC(=O)N[C@@H](C)C(=O)N[C@H](C(=O)N[C@@H](CC(C)C)C(=O)N[C@@H](CCCCN)C(=O)N[C@H](C(=O)N[C@@H](CC(C)C)C(=O)N[C@H](C(=O)N[C@H](C(=O)NCC(=O)N[C@@H](CC(C)C)C(=O)N1CCC[C@H]1C(=O)N[C@@H](C)C(=O)N[C@@H](CC(C)C)C(=O)N[C@H](C(=O)N[C@@H](CO)C(=O)N[C@@H](Cc1c[nH]c2ccccc12)C(=O)N[C@H](C(=O)N[C@@H](CCCCN)C(=O)N[C@@H](CCCNC(=N)N)C(=O)N[C@@H](CCCCN)C(=O)N[C@@H](CCCNC(=N)N)C(=O)N[C@@H](CCC(N)=O)C(=O)N[C@@H](CCC(N)=O)C(N)=O)[C@@H](C)CC)[C@@H](C)CC)[C@@H](C)O)[C@@H](C)O)C(C)C)C(C)C`, the outcome in the experiment on Staphylococcus aureus [3] and in the experiment on Staphylococcus aureus [4] was Active.
In the case of `CC[C@H](C)CCCCC(=O)N[C@@H](CCN)C(=O)N[C@H](C(=O)N[C@@H](CCN)C(=O)N[C@H]1CCNC(=O)[C@H]([C@@H](C)O)NC(=O)[C@H](CCN)NC(=O)[C@H](CCN)NC(=O)[C@H](CC(C)C)NC(=O)[C@@H](Cc2ccccc2)NC(=O)[C@H](CCN)NC1=O)[C@@H](C)O` (HELM PEPTIDE1{[CC[C@H](C)CCCCC(=O)[*:2]].[Dab].T.[Dab].[Dab].[Dab].[dF].L.[Dab].[Dab].T}$PEPTIDE1,PEPTIDE1,5:R3-11:R2$$$V2.0), the MIC with Escherichia coli [5] and in the experiment on Acinetobacter baumannii [6] was over 64 µg/mL in each case.
Regarding `CC(C)(O/N=C(\C(=O)N[C@@H]1C(=O)N2C(C(=O)[O-])=C(C[n+]3ccccc3)CS[C@H]12)c1csc(N)n1)C(=O)O` [CEFTAZIDIME], the results for the MIC against Staphylococcus aureus [1] and in the experiment with Staphylococcus aureus [2] were 16 µg/mL (≈ 29.3 µM) and 16 µg/mL, respectively.
As for `CC(=O)O[C@H]1C[C@@]2(C)[C@@H](C[C@@H](O)[C@H]3[C@@]4(C)CC[C@@H](O)[C@@H](C)[C@@H]4CC[C@@]32C)/C1=C(\CCC=C(C)C)C(=O)O` [FUSIDIC ACID], in the experiment with Staphylococcus aureus [7], the Activity turned out to be 1.8 log10CFU/g.
`C[C@H]1COc2c(N3CCN(C)CC3)c(F)cc3c(=O)c(C(=O)O)cn1c23.C[C@H]1COc2c(N3CCN(C)CC3)c(F)cc3c(=O)c(C(=O)O)cn1c23.O` [LEVOFLOXACIN]: the MIC in the experiment with Klebsiella pneumoniae is 64 µg/mL; against Staphylococcus aureus [1], 0.125 µg/mL; in the experiment on Enterococcus, over 64 µg/mL; in the experiment on Pseudomonas aeruginosa, 0.5 µg/mL; in the experiment with Staphylococcus aureus [2], 0.25 µg/mL; in experiment [13] it was 32 µg/mL. Besides, the values for the Activity with Staphylococcus aureus [8] and in the experiment on Staphylococcus aureus [9] were 15% and 0.45 log10CFU/ml, respectively. Further, the results for the PAE in the experiment on Staphylococcus aureus [10] and in the experiment with Staphylococcus aureus [12] were 0.5 h and 1.5 h, respectively. For the same compound, the Time with Staphylococcus aureus [11] was 2.5 h; with Staphylococcus aureus [14] it was 3.5 h.
Consider `CC(=O)NC[C@H]1CN(c2ccc(N3CCOCC3)c(F)c2)C(=O)O1` [LINEZOLID], for which, in the experiment with Staphylococcus aureus [15], the Activity is given as 1.6 log10CFU/ml. The MIC in the experiment with Staphylococcus aureus [2] amounted to 1 µg/mL.
Consider `C[C@@H](O)[C@H]1C(=O)N2C(C(=O)O)=C(S[C@@H]3CN[C@H](C(=O)N(C)C)C3)[C@H](C)[C@H]12` [MEROPENEM], for which the figures for the MIC against Staphylococcus aureus [1] and with Staphylococcus aureus [2] were 1 µg/mL (≈ 2.61 µM) and 2 µg/mL, respectively.
Regarding `CN(C)c1ccc(O)c2c1C[C@H]1C[C@H]3[C@H](N(C)C)C(O)=C(C(N)=O)C(=O)[C@@]3(O)C(O)=C1C2=O` [MINOCYCLINE], the MIC is 0.25 µg/mL (≈ 0.546 µM) against Staphylococcus aureus [1] and 0.125 µg/mL in the experiment on Staphylococcus aureus [2].
As for `CO[C@H]1/C=C/O[C@@]2(C)Oc3c(C)c(O)c4c(O)c(c(/C=N/N5CCN(C)CC5)c(O)c4c3C2=O)NC(=O)/C(C)=C\C=C\[C@H](C)[C@H](O)[C@@H](C)[C@@H](O)[C@@H](C)[C@H](OC(C)=O)[C@@H]1C` [RIFAMPIN], the MIC in the experiment with Escherichia coli [5] was 8 µg/mL (≈ 9.72 µM); against Staphylococcus aureus [1], 0.0078 µg/mL (≈ 0.00948 µM); in the experiment on Acinetobacter baumannii [16] it was 0.03 µg/mL; in the experiment on Staphylococcus aureus [2] it was 0.0078 µg/mL; in the experiment on Acinetobacter baumannii [6] it was 2 µg/mL (≈ 2.43 µM); in the experiment on Escherichia coli [17] it was 0.06 µg/mL.
For the compound `CN[C@H](CC(C)C)C(=O)N[C@H]1C(=O)N[C@@H](CC(N)=O)C(=O)N[C@H]2C(=O)N[C@H]3C(=O)N[C@H](C(=O)N[C@H](C(=O)O)c4cc(O)cc(O)c4-c4cc3ccc4O)[C@H](O)c3ccc(c(Cl)c3)Oc3cc2cc(c3O[C@@H]2O[C@H](CO)[C@@H](O)[C@H](O)[C@H]2O[C@H]2C[C@](C)(N)[C@H](O)[C@H](C)O2)Oc2ccc(cc2Cl)[C@H]1O` [VANCOMYCIN], the Activity in the experiment on Staphylococcus aureus [8] is given as 4%. Further, the MIC with Escherichia coli [5] is 512 µg/mL (≈ 353 µM); in the experiment with Acinetobacter baumannii [16], 64 µg/mL; in the experiment on Acinetobacter baumannii [6], 256 µg/mL (≈ 177 µM); with Escherichia coli [17] it was 128 µg/mL. In addition, the results for the PAE with Staphylococcus aureus [10] and with Staphylococcus aureus [12] were 1 h and 1.5 h, respectively. The results for the Time in the experiment on Staphylococcus aureus [11] and in the experiment with Staphylococcus aureus [14] were 3 h and 3.5 h, respectively.
In the case of GENTAMICIN, the MIC in the experiment on Staphylococcus aureus [2] is 0.06 µg/mL.

(Values after ChEMBL document CHEMBL5137134, “Developing the Natural Prenylflavone Artocarpin from Artocarpus hirsutus as a Potential Lead Targeting Pathogenic, Multidrug-Resistant Staphylococcus aureus, Persisters and Biofilms with No Detectable Resistance” (J Nat Prod, 2022).)
